Source: ChEMBL document CHEMBL4706603, “Discovery of VEGFR-2 inhibitors exerting significant anticancer activity against CD44+ and CD133+ cancer stem cells (CSCs): Reversal of TGF-β induced epithelial-mesenchymal transition (EMT) in hepatocellular carcinoma” (Eur J Med Chem, 2020)

Legend:
MCF7 = test: Cytotoxicity against human MCF7 cells assessed as reduction in cell viability incubated for 24 hrs by MTT assay; type: functional, cell-based; conditions: for IC50: MCF7, 24 h
Chorioallantoic membrane = test: Antiangiogenic activity in chicken fertilized egg chorioallantoic membrane measured upto 72 hrs by CAM assay; type: functional, tissue-based; conditions: Gallus gallus, dose 0.01-2 µM, time hrs <=72
MDA-MB-231 [1] = test: Cytotoxicity against human MDA-MB-231 cells assessed as reduction in cell viability incubated for 24 hrs by MTT assay; type: functional, cell-based; conditions: for IC50: MDA-MB-231, 24 h
MDA-MB-231 [2] = test: Induction of apoptosis in human MDA-MB-231 cells assessed as early apoptotic cells at IC50 incubated for 72 hrs by Alexa Fluor488-annexin V/PI staining based flow cytometric analysis (Rvb= 0.6 %); type: functional
HepG2 = test: Cytotoxicity against human HepG2 cells assessed as reduction in cell viability incubated for 24 hrs by MTT assay; type: functional, cell-based; conditions: for IC50: HepG2, 24 h
MDA-MB-231 [3] = test: Induction of apoptosis in human MDA-MB-231 cells assessed as viable cells at IC50 incubated for 72 hrs by Alexa Fluor488-annexin V/PI staining based flow cytometric analysis (Rvb= 99.4 %); type: functional
MDA-MB-231 [4] = test: Induction of apoptosis in human MDA-MB-231 cells assessed as late apoptotic cells at IC50 incubated for 72 hrs by Alexa Fluor488-annexin V/PI staining based flow cytometric analysis (Rvb= 0.0 %); type: functional
MDA-MB-231 [5] = test: Induction of apoptosis in human MDA-MB-231 cells assessed as necrotic cells at IC50 incubated for 72 hrs by Alexa Fluor488-annexin V/PI staining based flow cytometric analysis (Rvb= 0.0 %); type: functional
[6] = Inhibition of VEGFR2 expression in human HUVEC assessed as mean fluorescence intensity at IC50 incubated for 48 hrs by FITC based flow cytometry analysis (reference value: 49.24 +/- 0.47); type: functional
HUVEC [7] = test: Induction of apoptosis in human HUVEC assessed as early apoptotic cells at IC50 incubated for 48 hrs by annexin V-FITC and PI staining based flow cytometry (reference value: <1%); type: functional
HUVEC [8] = test: Induction of apoptosis in human HUVEC assessed as late apoptotic cells at IC50 incubated for 48 hrs by annexin V-FITC and PI staining based flow cytometry; type: functional
[9] = Inhibition of VEGF expression in human HUVEC assessed as mean fluorescence intensity at IC50 incubated for 48 hrs by FITC based flow cytometry analysis (reference value: 53.91+/- 0.95); type: functional
HUVEC [10] = test: Antiproliferative activity against human HUVEC assessed as reduction in cell viability incubated for 24 hrs by MTT assay; type: functional, cell-based
[11] = Inhibition of VEGFR2 expression in human HUVEC assessed as mean fluorescence intensity at IC50 incubated for 48 hrs by fluorescence microscopic analysis (reference value: 1.448 +/- 0.01); type: functional

O=C(Nc1cccc(C(F)(F)F)c1)Nc1cccc2c(Oc3ccc([N+](=O)[O-])cc3)cccc12
inhibition (MCF7): Dose-dependent effect | IC50 (MCF7): 0.953 µM

CC(=O)Nc1ccc(Oc2cccc3c(NC(=O)Nc4ccccc4)cccc23)cc1
Activity (Chorioallantoic membrane): Dose-dependent effect | inhibition (MDA-MB-231 [1]): Dose-dependent effect | IC50 (MDA-MB-231 [1]): 1.41 µM | Activity (MDA-MB-231 [2]): 46.37% | inhibition (HepG2): Dose-dependent effect | IC50 (HepG2): 0.258 µM | inhibition (MCF7): Dose-dependent effect | Activity (MDA-MB-231 [3]): 21.2% | Activity (MDA-MB-231 [4]): 27.4% | Activity (MDA-MB-231 [5]): 4.5%

O=C(Nc1ccccc1)Nc1cccc2c(Oc3ccc([N+](=O)[O-])cc3)cccc12
inhibition (MCF7): Dose-dependent effect | IC50 (MCF7): 0.953 µM

COc1ccc(NC(=O)Nc2cccc3c(Oc4ccc([N+](=O)[O-])cc4)cccc23)cc1
inhibition (MCF7): Dose-dependent effect

CC(=O)Nc1ccc(Oc2cccc3c(NC(=O)Nc4ccc(Cl)c(C(F)(F)F)c4)cccc23)cc1
Activity (Chorioallantoic membrane): Dose-dependent effect | inhibition (MDA-MB-231 [1]): Dose-dependent effect | IC50 (MDA-MB-231 [1]): 1.41 µM | Activity (MDA-MB-231 [2]): 47% | inhibition (HepG2): Dose-dependent effect | IC50 (HepG2): 0.258 µM | inhibition (MCF7): Dose-dependent effect | Activity (MDA-MB-231 [3]): 20.9% | Activity (MDA-MB-231 [4]): 27.5% | Activity (MDA-MB-231 [5]): 4.6%

O=C(Nc1ccccc1)Nc1cccc2c(O)cccc12
inhibition (MCF7): Dose-dependent effect

O=C(Nc1cccc(C(F)(F)F)c1)Nc1cccc2c(O)cccc12
inhibition (MCF7): Dose-dependent effect | IC50 (MCF7): 0.953 µM

CNC(=O)c1cc(Oc2ccc(NC(=O)Nc3ccc(Cl)c(C(F)(F)F)c3)cc2)ccn1.Cc1ccc(S(=O)(=O)O)cc1 [SORAFENIB TOSYLATE]
Flu intensity [6]: 6.45 | IC50 (MDA-MB-231 [1]): 0.349 µM | IC50 (HepG2): 0.215 µM | Activity (HUVEC [7]): 24.5% | IC50 (MCF7): 1.38 µM | Activity (HUVEC [8]): 25.6% | Flu intensity [9]: 7.14 | IC50 (HUVEC [10]): 1.95 µM | Flu intensity [11]: 1.1

O=C(Nc1ccc(Cl)c(C(F)(F)F)c1)Nc1cccc2c(Oc3ccc([N+](=O)[O-])cc3)cccc12
inhibition (MCF7): Dose-dependent effect | IC50 (MCF7): 0.953 µM
